Measurements from ChEMBL document CHEMBL3085750, “Discovery of 2-methylpyridine-based biaryl amides as γ-secretase modulators for the treatment of Alzheimer's disease” (Bioorg Med Chem Lett, 2013).
Each block holds one compound with its values, some of them ahead of it. Calls of active or inactive are those of the source. No cut-off for these calls is given here.

Assays:
[1] = system: Rattus norvegicus; assay: Reduction of amyloid beta-42 level in Sprague-Dawley rat CSF at 30 mg/kg, po after 24 hrs by immunoassay relative to control; assay type: functional; design: scale not given: the % may be the effect or the level left
[2] = Metabolic stability in human liver microsomes at 1 uM after 30 mins; assay type: ADME; conditions: read-out: Stability
[3] = system: Brain; assay: Drug uptake in Sprague-Dawley rat brain at 100 mg/kg, po after 4 to 36 hrs by LC/MS analysis; assay type: ADME, organism-based; design: dose 100 mg/kg, route oral; conditions: in vivo
[4] = biological target: Gamma-secretase; assay: Modulation of gamma-secretase in HEK293 cells expressing guinea pig Swedish mutant SFV-APP695sw coexpressing DLL4 assessed as inhibition of notch processing in human TE671 cells after 3 days by dual-cell luciferase reporter gene assay; assay type: cell-based
[5] = system: Rattus norvegicus; assay: Reduction of amyloid beta-42 level in Sprague-Dawley rat CSF at 100 mg/kg, po after 24 hrs by immunoassay relative to control; assay type: functional; design: scale not given: the % may be the effect or the level left
[6] = Clearance in rat at 2 mg/kg, iv; assay type: ADME, organism-based; design: dose 2 mg/kg, route intravenous; conditions: in vivo
[7] = system: Plasma; assay: Drug uptake in Sprague-Dawley rat plasma at 100 mg/kg, po after 4 to 36 hrs by LC/MS analysis; assay type: ADME, organism-based; design: dose 100 mg/kg, route oral; conditions: in vivo
[8] = system: Rattus norvegicus; assay: Reduction of amyloid beta-42 level in Sprague-Dawley rat CSF at 100 mg/kg, po after 4 hrs by immunoassay relative to control; assay type: functional; design: scale not given: the % may be the effect or the level left
[9] = system: Rattus norvegicus; assay: Reduction of amyloid beta-42 level in Sprague-Dawley rat brain at 100 mg/kg, po after 4 hrs by immunoassay relative to control; assay type: functional; design: scale not given: the % may be the effect or the level left
[10] = Oral bioavailability in cynomolgus monkey at 5 mg/kg; assay type: ADME, organism-based, Macaca fascicularis; conditions: in vivo
[11] = system: Rattus norvegicus; assay: Reduction of amyloid beta-42 level in Sprague-Dawley rat CSF at 300 mg/kg, po after 24 hrs by immunoassay relative to control; assay type: functional; design: scale not given: the % may be the effect or the level left
[12] = Half life in rat at 2 mg/kg, iv; assay type: ADME, organism-based; design: dose 2 mg/kg, route intravenous; conditions: in vivo
[13] = Apparent permeability in pig LLC-PK1 cells; assay type: ADME, cell-based, Sus scrofa
[14] = Ratio of unbound plasma concentration in Sprague-Dawley rat to gamma-secretase-mediated amyloid beta-42 production in HEK293 cells; assay type: ADME, cell-based
[15] = biological target: T1, Gamma-secretase (Homo sapiens) (UniProt Q96BI3+Q9NZ42+Q8WW43+P49768+Q92542+P49810); assay: Selectivity ratio of IC50 for gamma-secretase-mediated notch processing in HEK293 cells by dual-cell luciferase reporter gene assay to IC50 for gamma-secretase-mediated amyloid beta-42 production in HEK293 cells by HTRF assay; assay type: cell-based
[16] = Ratio of drug level in brain to plasma in Sprague-Dawley rat; assay type: ADME, cell-free; conditions: read-out: BPR
[17] = Half life in cynomolgus monkey at 2 mg/kg, iv; assay type: ADME, organism-based, Macaca fascicularis; design: dose 2 mg/kg, route intravenous; conditions: in vivo
[18] = system: Rattus norvegicus; assay: Reduction of amyloid beta-40 level in Sprague-Dawley rat brain at 100 mg/kg, po after 4 hrs by immunoassay; assay type: functional, organism-based; design: dose 100 mg/kg
[19] = biological target: Gamma-secretase; assay: Modulation of gamma-secretase in HEK293 cells expressing guinea pig Swedish mutant SFV-APP695sw assessed as inhibition of amyloid beta-40 production after 16 to 18 hrs by HTRF assay; assay type: cell-based, Homo sapiens
[20] = system: Rattus norvegicus; assay: Toxicity in Sprague-Dawley rat assessed as histopathological changes at 30 to 300 mg/kg, po after 4 days by light microscopic analysis; assay type: organism-based; design: dose 30-300 mg/kg, route oral; conditions: in vivo, 96 h
[21] = biological target: Gamma-secretase; assay: Modulation of gamma-secretase in HEK293 cells expressing guinea pig Swedish mutant SFV-APP695sw assessed as inhibition of amyloid beta-42 production after 16 to 18 hrs by HTRF assay; assay type: cell-based, Homo sapiens
[22] = system: Rattus norvegicus; assay: Reduction of amyloid beta-40 level in Sprague-Dawley rat CSF at 100 mg/kg, po after 4 hrs by immunoassay; assay type: functional, organism-based; design: dose 100 mg/kg
[23] = Clearance in cynomolgus monkey at 2 mg/kg, iv; assay type: ADME, organism-based, Macaca fascicularis; design: dose 2 mg/kg, route intravenous; conditions: in vivo
[24] = Volume of distribution at steady state in cynomolgus monkey at 2 mg/kg, iv; assay type: ADME, organism-based, Macaca fascicularis; design: dose 2 mg/kg, route intravenous; conditions: in vivo, read-out: Vdss
[25] = biological target: Cytochrome P450 2D6 (Homo sapiens, UniProt P10635); assay: Inhibition of CYP2D6 (unknown origin) after 10 mins; assay type: ADME
Cytochrome P450 2D6, sequence (P10635 whole entry): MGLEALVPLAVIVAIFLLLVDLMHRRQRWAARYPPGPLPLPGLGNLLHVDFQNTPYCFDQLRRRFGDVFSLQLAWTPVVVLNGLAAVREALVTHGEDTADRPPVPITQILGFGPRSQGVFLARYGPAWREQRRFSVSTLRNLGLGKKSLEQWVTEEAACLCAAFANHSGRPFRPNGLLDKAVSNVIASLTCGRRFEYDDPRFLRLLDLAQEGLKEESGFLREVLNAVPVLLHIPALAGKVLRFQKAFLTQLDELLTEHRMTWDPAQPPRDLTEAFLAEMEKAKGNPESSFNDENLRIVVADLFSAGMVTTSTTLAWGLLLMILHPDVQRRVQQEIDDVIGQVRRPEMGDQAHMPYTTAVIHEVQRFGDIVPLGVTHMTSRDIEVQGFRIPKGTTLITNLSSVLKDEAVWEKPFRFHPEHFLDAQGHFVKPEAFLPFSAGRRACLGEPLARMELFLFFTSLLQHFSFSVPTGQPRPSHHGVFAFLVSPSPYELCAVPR

[26] = system: Rattus norvegicus; assay: Reduction of amyloid beta level in Sprague-Dawley rat CSF at 100 mg/kg, po after 36 hrs by immunoassay; assay type: functional, organism-based; design: dose 100 mg/kg
[27] = Efflux ratio of apparent permeability in pig LLC-PK1 cells; assay type: ADME, cell-based, Sus scrofa
[28] = Oral bioavailability in rat at 5 mg/kg; assay type: ADME, organism-based; conditions: in vivo
[29] = system: Rattus norvegicus; assay: Toxicity in Sprague-Dawley rat assessed as notch-associated effects at 30 to 300 mg/kg, po after 4 days by light microscopic analysis; assay type: organism-based; design: dose 30-300 mg/kg, route oral; conditions: in vivo, 96 h
[30] = Volume of distribution at steady state in rat at 2 mg/kg, iv; assay type: ADME, organism-based; design: dose 2 mg/kg, route intravenous; conditions: in vivo, read-out: Vdss
[31] = system: Plasma; assay: Unbound plasma concentration in Sprague-Dawley rat at 300 mg/kg; assay type: ADME, organism-based; design: dose 300 mg/kg; conditions: in vivo
[32] = Metabolic stability in rat liver microsomes at 1 uM after 30 mins; assay type: ADME; conditions: read-out: Stability
[33] = biological target: Cytochrome P450 3A4 (Homo sapiens, UniProt P08684); assay: Inhibition of CYP3A4 (unknown origin) after 5 mins; assay type: ADME
Cytochrome P450 3A4, sequence (P08684 whole entry): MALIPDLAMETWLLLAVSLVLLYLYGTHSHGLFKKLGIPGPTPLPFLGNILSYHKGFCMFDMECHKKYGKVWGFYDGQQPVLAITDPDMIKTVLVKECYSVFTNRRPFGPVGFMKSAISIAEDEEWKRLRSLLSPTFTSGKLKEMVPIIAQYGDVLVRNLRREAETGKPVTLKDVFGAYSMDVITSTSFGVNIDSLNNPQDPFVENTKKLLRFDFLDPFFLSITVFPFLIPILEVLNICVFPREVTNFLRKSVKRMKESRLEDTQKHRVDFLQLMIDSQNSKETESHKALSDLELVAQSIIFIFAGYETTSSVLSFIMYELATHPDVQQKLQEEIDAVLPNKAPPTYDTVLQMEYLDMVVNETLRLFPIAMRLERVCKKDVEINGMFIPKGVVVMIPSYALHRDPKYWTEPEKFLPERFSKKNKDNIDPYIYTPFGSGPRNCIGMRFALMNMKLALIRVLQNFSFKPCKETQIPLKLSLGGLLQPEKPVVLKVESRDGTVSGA

[34] = Ratio of drug level in brain to plasma in mouse at 10 mg/kg, po after 2 hrs; assay type: ADME, organism-based; design: dose 10 mg/kg, route oral; conditions: read-out: BPR
[35] = system: Plasma; assay: Unbound plasma concentration in Sprague-Dawley rat; assay type: ADME, cell-free
[36] = Drug level in Sprague-Dawley rat CSF; assay type: ADME, Cerebrospinal fluid; conditions: in vivo, read-out: Ct
[37] = biological target: T1, Gamma-secretase (Homo sapiens); assay: Modulation of gamma-secretase in HEK293 cells expressing guinea pig Swedish mutant SFV-APP695sw assessed as inhibition of amyloid beta-42 production at 10 uM after 16 to 18 hrs by HTRF assay relative to control; assay type: cell-based

Compound: Cc1cc(-c2ccc(NC(=O)[C@H](C)c3cc(C(F)(F)F)cc(C(F)(F)F)c3)cc2)ccn1
Activity [1]: 32%
microsomal CLint at 1 µM [2]: < 14 µL/min/mg
Drug uptake [3]: Active
IC50 [4]: 11800 nM
Activity [5]: 44%
clearance [6]: 9.67 mL/min/kg
Drug uptake [7]: Active
Activity [8]: 41%
Activity [9]: 33%
bioavailability [10]: 56%
Activity [11]: 55%
half-life [12]: 6 h
Papp [13]: 7.8 ×10⁻⁶ cm/s
Ratio [14]: 2
Ratio IC50 [15]: 45
Kp [16]: 2
half-life [17]: 15.9 h
Activity [18]: inactive
IC50 [19]: 3100 nM
Activity [20]: Non-toxic
IC50 [21]: 260 nM
Activity [22]: inactive
clearance [23]: 2.67 mL/min/kg
Vd [24]: 3.1 L/kg
IC50 [25]: 4100 nM
Activity [26]: Active
efflux ratio [27]: 1.2
bioavailability [28]: 100%
Activity [29]: Non-toxic
Vd [30]: 4.3 L/kg
Cp(f) [31]: 0.57 nM
microsomal CLint at 1 µM [32]: < 14 µL/min/mg
IC50 [33]: > 27000 nM

Compound: Cc1cc(-c2ccc(NS(=O)(=O)c3cc(Cl)cc(Cl)c3)cc2)ccn1
microsomal CLint at 1 µM [2]: 497 µL/min/mg
IC50 [21]: 720 nM
Kp at 2 h [34]: 0.1
IC50 [25]: 9800 nM
microsomal CLint at 1 µM [32]: > 399 µL/min/mg
IC50 [33]: 4700 nM

Compound: O=S(=O)(Nc1ccc(-c2nnco2)cc1)c1cc(Cl)cc(Cl)c1
microsomal CLint at 1 µM [2]: 94 µL/min/mg
IC50 [21]: 2440 nM
Kp at 2 h [34]: 0.16
IC50 [25]: 15100 nM
microsomal CLint at 1 µM [32]: 287 µL/min/mg
IC50 [33]: 27000 nM

Compound: O=S(=O)(Nc1ccc(-n2ccnc2)cc1)c1cc(Cl)cc(Cl)c1
microsomal CLint at 1 µM [2]: < 14 µL/min/mg
IC50 [21]: 2100 nM
Kp at 2 h [34]: 0.07
IC50 [25]: 100 nM
microsomal CLint at 1 µM [32]: < 14 µL/min/mg
IC50 [33]: 100 nM

Compound: O=S(=O)(Nc1ccc(-c2cnco2)cc1)c1cc(Cl)cc(Cl)c1
microsomal CLint at 1 µM [2]: 32 µL/min/mg
IC50 [21]: 1540 nM
Kp at 2 h [34]: 0.03
IC50 [25]: 2900 nM
microsomal CLint at 1 µM [32]: 166 µL/min/mg
IC50 [33]: 1600 nM

The next lines start with results.

microsomal CLint at 1 µM [2]: < 14 µL/min/mg
Kp [16]: 2
IC50 [21]: > 10000 nM
IC50 [25]: 2600 nM
microsomal CLint at 1 µM [32]: < 14 µL/min/mg
IC50 [33]: > 27000 nM
Compound: Cc1cc(-c2ccc(NC(=O)[C@@H](C)c3cc(C(F)(F)F)cc(C(F)(F)F)c3)cc2)ccn1
Activity [8]: inactive

Cp(f) [35]: 290 nM
concentration [36]: 2 nM
Papp [13]: < 1 ×10⁻⁶ cm/s
IC50 [21]: 20 nM
Compound: Cc1cc(-c2ccc(NC(=O)[C@H](CC(C)C)c3cccc(-c4ccc(N5CCOCC5)cc4)c3)cc2)ccn1
Activity [8]: 27%

microsomal CLint at 1 µM [2]: 18 µL/min/mg
IC50 [21]: 460 nM
IC50 [25]: 13000 nM
microsomal CLint at 1 µM [32]: 22 µL/min/mg
IC50 [33]: > 27000 nM
Compound: Cc1cc(-c2ccc(NC(=O)Cc3cc(C(F)(F)F)cc(C(F)(F)F)c3)cc2)ccn1

microsomal CLint at 1 µM [2]: 91 µL/min/mg
inhibition [37]: 53%
IC50 [21]: > 10000 nM
Kp at 2 h [34]: 1.46
IC50 [25]: > 27000 nM
microsomal CLint at 1 µM [32]: 19 µL/min/mg
IC50 [33]: > 27000 nM
Compound: Cc1cc(-c2ccc(NC(=O)c3cc(Cl)cc(Cl)c3)cc2)ccn1
